Structures are written as SMILES.

Holding throughout (type): biochemical
Experiment [1] addresses T1, SEQ ID NO 20, mutant of Zea mays bx9 glucosyl transferase (Zea mays, UniProt B4G072, A281K/A334K/F21Y/L194V/M279F/S117V).
T1 construct: His tag (C); made in house
The conditions noted are these: lower block, concentration printed only in upper block: V 0.300, VII 0.210; IV, VIII, XI, XXI, XX, XVIII, XVI, XV, XIV 0.200; others 1.000 mM. As for the experimental part: (§1) Glucosyl transferase activity is assayed via measurement of acceptor substrate-dependent production of UDP from ultrapure UDP-glucose using the Promega UDP-Glo™ method and according to the manufacturer's instructions. Assays are run in 96 well microtiter plates.
(§2) Enzyme, typically at a stock concentration of ˜2 mg/ml is diluted to an appropriate concentration in 50 mM K^+ Hepes buffer at pH7.5 containing 0.5 mg/mL bovine serum albumin (BSA) and 5 ul aliquots of this diluted enzyme added to each well of a Perkin Elmer white ½ area 96 well plate. […] Assays are run for an appropriate time (usually 10 to 60 min) so that the amount of UDP formed lies within the most nearly linear part of the UDP standard curve and are stopped with the addition and mixing of 25 ul UDP-Glo™ detection reagent (prepared as described below). Plates are then incubated at room temperature for 60 minutes and then read in a luminescence plate reader (Perkin Elmer Envision 2130 Multilabel Reader). A UDP standard curve is run alongside each set of assays and reagent blank control assays run with DMSO in place of test herbicide.
(§3) The UDP-Glo™ reagents are made up and used according to the manufacturer's instructions. Thus, Nucleotide Detection Buffer and ATP are combined to make nucleotide detection reagent (NDR) dispensed into aliquots and frozen to be freshly thawed before use.
(§4) Km and kcat values in respect of UDP-glucose are derived by carrying out experiments to measure initial rates over a suitable range of concentrations of UDP glucose out at a fixed near saturating concentration of acceptor substrate. Best fit values of kcat, Km and kcat/Km are obtained by direct fitting of the data to the Michaelis-Menten equation using Graphpad Prism™ software.
All of these proteins were C-terminally his-tagged, expressed and purified as described in Example 1. Assays were run and analyzed as described in example 1.

Experiment [2] addresses T2, Zea mays bx9 glucosyl transferase (C-terminally his tagged SEQ ID NO: 1) (Zea mays, UniProt B4G072).
T2 construct: His tag (C); made in house; host or cells: E. coli BL21 (DE3), pET24a
T2 sequence (B4G072 1-462): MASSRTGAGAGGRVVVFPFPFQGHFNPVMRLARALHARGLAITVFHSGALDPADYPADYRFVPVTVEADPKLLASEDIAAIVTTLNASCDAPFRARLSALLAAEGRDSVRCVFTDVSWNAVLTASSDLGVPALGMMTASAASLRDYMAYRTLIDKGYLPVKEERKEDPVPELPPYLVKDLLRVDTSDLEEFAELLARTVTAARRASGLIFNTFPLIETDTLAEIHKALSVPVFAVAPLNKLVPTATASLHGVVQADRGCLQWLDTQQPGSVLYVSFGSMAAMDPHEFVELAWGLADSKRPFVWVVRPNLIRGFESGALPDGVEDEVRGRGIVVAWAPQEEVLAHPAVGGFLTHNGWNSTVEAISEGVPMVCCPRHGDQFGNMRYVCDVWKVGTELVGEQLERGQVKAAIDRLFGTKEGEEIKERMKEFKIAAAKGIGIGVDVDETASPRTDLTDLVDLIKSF
The experiment is described as follows: UDP-Glo glucosyl transferase assay, purified enzyme. The conditions noted are these: herbicide mM: V 0.300, VI 0.250, VII 0.210; IV, VIII, XI, XXI, XX, XVIII, XVI, XV, XIV 0.200; others 1.000. The method, then: as §1
as §2, with “herbicide. Typically, 300 pmol of UDP corresponds to a Relative Luminescence Unit (RLU) reading of about 1.5E7 and the response curve between 0 and 600 pmol is fitted to a polynomial function (see for example FIG. 2).” for “herbicide.”
as §3, §4

The target in experiment [3] is T3, SEQ ID NO 18, mutant of Zea mays bx9 glucosyl transferase (Zea mays, UniProt B4G072, A281K/A334K/F21Y/M279F/S117V).
T3 construct: His tag (C); made in house
Described as above. The conditions noted are these: herbicide mM: V 0.300, VI 0.250, VII 0.210; IV, VIII, XI, XXI, XX, XVIII, XVI, XV, XIV 0.200; others 1.000. The method, then:
as §1
as §2, with “herbicide. Typically, 300 pmol of UDP corresponds to a Relative Luminescence Unit (RLU) reading of about 1.5E7 and the response curve between 0 and 600 pmol is fitted to a polynomial function (see for example FIG. 2).” for “herbicide.”
(§5) The UDP-Glo™ reagents are made up and used according to the manufacturer's instructions. Thus, Nucleotide Detection Buffer and ATP are combined to make nucleotide detection reagent (NDR) dispensed into aliquots and frozen to be freshly thawed before use. […]
(§6) Table 13 summarizes the results obtained from assays, run as described in Example 1, using a variety of alcohol and aminal PSII herbicides as substrates of the Zea mays bx9 w/t (i.e. C-terminally his tagged SEQ ID no 1) and various mutants of the same, selected from SEQ ID NO: 16-30). All of these proteins were C-terminally his-tagged, expressed and purified as described in Example 1. Assays were run and analyzed as described in example 1. It is seen that various of the mutations herein and combinations thereof led to significant improvements (over the w/t bx9 protein) in catalytic activity versus various of the herbicides and that these improvements are often of sufficient magnitude to be useful for conferring improved herbicide tolerance upon crop. This is especially the case given that even the unmutated w/t bx9 enzyme which has only modest glucosyl transferase activity (for example against compounds V and VI) was nevertheless adequately active to confer significant herbicide tolerance in the glass house (as shown in example 9) even without mutational improvement. It is also seen that particular mutations can lead to very much improved activity in respect of some chemistries but not to others but that, overall, there is at least one variant within the scope of the current invention that provides significant and useful improvement in tolerance to each of the chemistries tested.

In experiment [4] the target is T4, SEQ ID NO 23, mutant of Zea mays bx9 glucosyl transferase (Zea mays, UniProt B4G072, A334K/F21Y/L194C/M279F/S117V).
T4 construct: His tag (C); made in house
Described as above. The conditions noted are these: lower block, concentration printed only in upper block: V 0.300, VII 0.210; IV, VIII, XI, XXI, XX, XVIII, XVI, XV, XIV 0.200; others 1.000 mM. The method, then: as §1
as §2, with “herbicide. Typically, 300 pmol of UDP corresponds to a Relative Luminescence Unit (RLU) reading of about 1.5E7 and the response curve between 0 and 600 pmol is fitted to a polynomial function (see for example FIG. 2).” for “herbicide.”
as §5, §6

Experiment [5] concerns the target T5, SEQ ID NO 19, mutant of Zea mays bx9 glucosyl transferase (Zea mays, UniProt B4G072, A281K/A334K/L194V/M279F/S117V).
T5 construct: His tag (C); made in house
The experiment is described as above. The conditions noted are these: herbicide mM: V 0.300, VI 0.250, VII 0.210; IV, VIII, XI, XXI, XX, XVIII, XVI, XV, XIV 0.200; others 1.000. The method, then: as §1
as §2, with “herbicide. Typically, 300 pmol of UDP corresponds to a Relative Luminescence Unit (RLU) reading of about 1.5E7 and the response curve between 0 and 600 pmol is fitted to a polynomial function (see for example FIG. 2).” for “herbicide.”
as §5, §6

Experiment [6] deals with T6, SEQ ID NO 21, mutant of Zea mays bx9 glucosyl transferase (Zea mays, UniProt B4G072, A334K/F21Y/L194V/M279F/S117V).
T6 construct: His tag (C); made in house
The experiment is described as above. The conditions noted are these: lower block, concentration printed only in upper block: V 0.300, VII 0.210; IV, VIII, XI, XXI, XX, XVIII, XVI, XV, XIV 0.200; others 1.000 mM. The method, then:
as §1
as §2, with “herbicide. Typically, 300 pmol of UDP corresponds to a Relative Luminescence Unit (RLU) reading of about 1.5E7 and the response curve between 0 and 600 pmol is fitted to a polynomial function (see for example FIG. 2).” for “herbicide.”
as §3, §4
(§7) Variants of C-terminally his tagged SEQ ID No:1 (w/t bx9 from Zea mays), exemplified as SEQ ID 16-30, were cloned, purified and assayed as described in Example 1. FIG. 4 depicts the data from some experiments to determine the kinetic parameters of some of these variants in respect of herbicide VI and table 12 summarizes the estimates of kinetic parameters obtained from further such experiments in respect of a range of herbicides.
as §6

In experiment [7] the target is T7, SEQ ID NO 22, mutant of Zea mays bx9 glucosyl transferase (Zea mays, UniProt B4G072, A334K/F21Y/M279F/S117V/T220P).
T7 construct: His tag (C); made in house
The description is as above. The conditions noted are these: lower block, concentration printed only in upper block: V 0.300, VII 0.210; IV, VIII, XI, XXI, XX, XVIII, XVI, XV, XIV 0.200; others 1.000 mM. As for the experimental part: as §1
as §2, with “herbicide. Typically, 300 pmol of UDP corresponds to a Relative Luminescence Unit (RLU) reading of about 1.5E7 and the response curve between 0 and 600 pmol is fitted to a polynomial function (see for example FIG. 2).” for “herbicide.”
as §3, §4, §7, §6

Experiment [8] concerns the target T8, SEQ ID NO 17, zmBX9 S117V, M279F, A334K mutant (Zea mays, UniProt B4G072, A334K/M279F/S117V).
T8 construct: polypeptides were the C-terminally his-tagged; His tag (C); made in house
Described as above. The conditions noted are these: herbicide mM: V 0.300, VI 0.250, VII 0.210; IV, VIII, XI, XXI, XX, XVIII, XVI, XV, XIV 0.200; others 1.000. As for the experimental part: as §1
as §2, with “herbicide. Typically, 300 pmol of UDP corresponds to a Relative Luminescence Unit (RLU) reading of about 1.5E7 and the response curve between 0 and 600 pmol is fitted to a polynomial function (see for example FIG. 2).” for “herbicide.”
as §3, §4, §7, §6

T5 sequence (B4G072 whole entry S117V/L194V/M279F/A281K/A334K): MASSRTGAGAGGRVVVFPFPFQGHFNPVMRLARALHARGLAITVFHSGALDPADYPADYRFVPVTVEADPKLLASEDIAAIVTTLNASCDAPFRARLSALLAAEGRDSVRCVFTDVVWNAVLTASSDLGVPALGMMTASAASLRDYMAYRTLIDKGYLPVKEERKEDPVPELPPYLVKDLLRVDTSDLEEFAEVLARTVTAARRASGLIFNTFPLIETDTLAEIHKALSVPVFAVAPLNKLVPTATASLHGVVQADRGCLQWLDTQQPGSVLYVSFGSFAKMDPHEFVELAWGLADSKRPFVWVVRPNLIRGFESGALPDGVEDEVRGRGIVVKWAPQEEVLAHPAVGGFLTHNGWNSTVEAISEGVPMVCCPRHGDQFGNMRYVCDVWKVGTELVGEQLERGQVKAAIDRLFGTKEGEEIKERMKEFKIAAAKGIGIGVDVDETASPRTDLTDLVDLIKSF
T3 sequence (B4G072 whole entry F21Y/S117V/M279F/A281K/A334K): as the sequence (B4G072 whole entry S117V/L194V/M279F/A281K/A334K) above, with F21Y, V194L counted along it
T8 sequence (B4G072 whole entry S117V/M279F/A334K): as the sequence (B4G072 whole entry S117V/L194V/M279F/A281K/A334K) above, with V194L, K281A counted along it
T6 sequence (B4G072 whole entry F21Y/S117V/L194V/M279F/A334K): as the sequence (B4G072 whole entry S117V/L194V/M279F/A281K/A334K) above, with F21Y, K281A counted along it
T1 sequence (B4G072 whole entry F21Y/S117V/L194V/M279F/A281K/A334K): as the sequence (B4G072 whole entry S117V/L194V/M279F/A281K/A334K) above, with F21Y counted along it
T4 sequence (B4G072 whole entry F21Y/S117V/L194C/M279F/A334K): as the sequence (B4G072 whole entry S117V/L194V/M279F/A281K/A334K) above, with F21Y, V194C, K281A counted along it
T7 sequence (B4G072 whole entry F21Y/S117V/T220P/M279F/A334K): as the sequence (B4G072 whole entry S117V/L194V/M279F/A281K/A334K) above, with F21Y, V194L, T220P, K281A counted along it

In the case of `C[C@@H]1C(=O)N(c2noc(C(C)(C)C)c2C#N)C(O)[C@H]1C` (stereo partly drawn) [XXVI], the Activity is recorded as 0.143 pmol/sec/pmol enzyme in experiment [1]; −0.001 pmol/sec/pmol enzyme in experiment [2]; 0.051 pmol/sec/pmol enzyme in experiment [3]; 0.034 pmol/sec/pmol enzyme in experiment [4]; 0.095 pmol/sec/pmol enzyme in experiment [5]; 0.040 pmol/sec/pmol enzyme in experiment [6]. In addition, the Activity in experiment [7] is 0.073 pmol/sec/pmol enzyme; in experiment [8], 0.020 pmol/sec/pmol enzyme.

In the case of `CN1CC(O)N(c2cc(C(C)(C)C)ncn2)C1=O` (stereo not drawn) [IV], the Activity is 0.079 pmol/sec/pmol enzyme in experiment [1]; 0.000 pmol/sec/pmol enzyme in experiment [2]; 0.145 pmol/sec/pmol enzyme in experiment [3]; 0.023 pmol/sec/pmol enzyme in experiment [4]; 0.053 pmol/sec/pmol enzyme in experiment [5]; 0.008 pmol/sec/pmol enzyme in experiment [6]. In addition, the figures for the Activity in experiment [7] and in experiment [8] were 0.099 pmol/sec/pmol enzyme and 0.019 pmol/sec/pmol enzyme, respectively.

For the compound `CN1CC(O)N(c2cc(C(C)(C)C)on2)C1=O` (stereo not drawn) [XXII], the Activity is recorded as 0.120 pmol/sec/pmol enzyme in experiment [1]; 0.000 pmol/sec/pmol enzyme in experiment [2]; 0.186 pmol/sec/pmol enzyme in experiment [3]; 0.020 pmol/sec/pmol enzyme in experiment [4]; 0.080 pmol/sec/pmol enzyme in experiment [5]; 0.015 pmol/sec/pmol enzyme in experiment [6]. Besides, the Activity in experiment [7] worked out at 0.101 pmol/sec/pmol enzyme; in experiment [8] it was 0.023 pmol/sec/pmol enzyme.

On to `Cc1cnc(N2C(=O)N(C)C(C)C2O)cc1C(F)(F)F` (stereo not drawn) [XX], for which the Activity in experiment [1] is given as 0.698 pmol/sec/pmol enzyme; in experiment [2] it was −0.001 pmol/sec/pmol enzyme; in experiment [3] it was 0.751 pmol/sec/pmol enzyme; in experiment [4], 0.249 pmol/sec/pmol enzyme; in experiment [5], 0.662 pmol/sec/pmol enzyme; in experiment [6], 0.338 pmol/sec/pmol enzyme. Also, the Activity in experiment [7] was determined as 0.563 pmol/sec/pmol enzyme; in experiment [8] it was 0.244 pmol/sec/pmol enzyme.

Take `C[C@@H]1C(O)N(c2cc(C(C)(C)C)on2)C(=O)[C@@H]1C` (stereo partly drawn) [VIII]: the Activity in experiment [1] is 0.145 pmol/sec/pmol enzyme; in experiment [2], −0.002 pmol/sec/pmol enzyme; in experiment [3], 0.124 pmol/sec/pmol enzyme; in experiment [4], 0.017 pmol/sec/pmol enzyme; in experiment [5], 0.077 pmol/sec/pmol enzyme; in experiment [6], 0.016 pmol/sec/pmol enzyme. The Activity in experiment [7] amounted to 0.061 pmol/sec/pmol enzyme; in experiment [8], 0.008 pmol/sec/pmol enzyme.

Take `C[C@H]1C(=O)N(c2noc(C(C)(C)C)c2C#N)C(O)[C@@H]1C` (stereo partly drawn) [XXIII]: the Activity in experiment [1] is listed as 0.119 pmol/sec/pmol enzyme; in experiment [2], −0.003 pmol/sec/pmol enzyme; in experiment [3] it was 0.089 pmol/sec/pmol enzyme; in experiment [4], 0.021 pmol/sec/pmol enzyme; in experiment [5], 0.072 pmol/sec/pmol enzyme; in experiment [6] it was 0.034 pmol/sec/pmol enzyme. Besides, the Activity in experiment [7] is 0.067 pmol/sec/pmol enzyme; in experiment [8], 0.014 pmol/sec/pmol enzyme.

Take `COC1=C(C)C(O)N(c2cc(C(C)(C)C)ncn2)C1=O` (stereo not drawn) [X]: the Activity in experiment [1] was 0.137 pmol/sec/pmol enzyme; in experiment [2], −0.001 pmol/sec/pmol enzyme; in experiment [5], 0.102 pmol/sec/pmol enzyme.

On to `CON1C(=O)N(c2cc(C(F)(F)F)c(C)cn2)C(O)[C@@H]1C` (stereo partly drawn) [XV], for which the Activity in experiment [4] came to 1.641 pmol/sec/pmol enzyme; in experiment [5], 1.391 pmol/sec/pmol enzyme; in experiment [6], 1.711 pmol/sec/pmol enzyme; in experiment [7], 1.530 pmol/sec/pmol enzyme; in experiment [8] it was 0.833 pmol/sec/pmol enzyme.

As for `C[C@H]1C(O)N(c2cc(C(C)(C)F)ncn2)C(=O)N1C` (stereo partly drawn) [XIV], the Activity in experiment [1] was 0.411 pmol/sec/pmol enzyme; in experiment [2], −0.001 pmol/sec/pmol enzyme; in experiment [4], 0.196 pmol/sec/pmol enzyme; in experiment [8], 0.037 pmol/sec/pmol enzyme.

These data come from patent US20200270588A1, “GLUCOSYL TRANSFERASE POLYPEPTIDES AND METHODS OF USE” (Syngenta Participations AG, priority 2017, published 2020).
